Source: patent US8703961B2, “Thiazole derivatives for the treatment of diseases such as cancer” (Merck Patent GmbH, priority 2009, dated 2014)

How the values were obtained:
NUAK1 = target: T1, NUAK1 (Homo sapiens, UniProt O60285); assay: filter binding assay of NUAK1 inhibition; format: biochemical; conditions: for IC50: derived from % inhibition at 1 μM; for remaining activity at 1 µM: read-out: residual kinase activity NUAK1
T1 construct: purchased
T1 sequence (O60285 1-661): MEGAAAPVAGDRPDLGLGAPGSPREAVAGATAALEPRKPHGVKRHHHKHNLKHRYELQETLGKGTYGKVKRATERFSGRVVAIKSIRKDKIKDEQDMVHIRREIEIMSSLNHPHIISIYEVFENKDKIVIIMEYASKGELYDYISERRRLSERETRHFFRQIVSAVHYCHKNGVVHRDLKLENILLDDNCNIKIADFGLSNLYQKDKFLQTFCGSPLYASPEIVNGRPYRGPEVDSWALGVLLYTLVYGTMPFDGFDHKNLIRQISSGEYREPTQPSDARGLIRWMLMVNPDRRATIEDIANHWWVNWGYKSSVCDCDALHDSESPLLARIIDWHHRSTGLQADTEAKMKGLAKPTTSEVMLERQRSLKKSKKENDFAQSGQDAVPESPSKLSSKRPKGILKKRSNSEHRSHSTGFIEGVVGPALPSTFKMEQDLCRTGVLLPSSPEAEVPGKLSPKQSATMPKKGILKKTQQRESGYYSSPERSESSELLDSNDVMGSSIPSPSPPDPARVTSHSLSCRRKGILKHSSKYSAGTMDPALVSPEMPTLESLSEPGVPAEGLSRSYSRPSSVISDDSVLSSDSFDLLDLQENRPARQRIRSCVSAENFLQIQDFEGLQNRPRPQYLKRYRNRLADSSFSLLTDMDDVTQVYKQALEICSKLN
Procedure: (§1) All kinase assays were carried out using the Multidrop 384 from Thermo-Fisher at room temperature in a total assay volume of 25.5 μl. 15 μl of an enzyme mix comprising enzyme and substrate in buffer are added to the test batch comprising either 0.5 μl of test substance, DMSO control or empty container. Test substances are pre-incubated in the presence of the enzyme and substrate for 5 minutes before the reaction is initiated by addition of 10 μl of ATP (concentration kinase-dependent of […]). The reaction is terminated by addition of 5 μl of orthophosphoric acid (50 mM). The test containers are then transferred onto P81 Unifilter plates by means of a “Packard Harvester” and dried in air. The dry Unifilter plates are sealed after the addition of MicroScint O, and the radioactivity is determined in a Packard Topcount NXT.
NUAK1 (5-20 mU diluted in 50 mM Tris pH 7.5, 0.1 mM EGTA, 0.1% β-mercaptoethanol, 1 mg/ml of BSA) is tested against ALNRTSSDSALHRRR as substrate. The final volume of 25.5 μl contains 50 mM Tris pH 7.5, 0.1 mM EGTA, 0.3 mM ALNRTSSDSALHRRR, 10 mM magnesium acetate and 0.02 mM [^33P-γ-ATP] (50-1000 cpm/pmole) and is incubated at room temperature for 30 min. Tests are terminated by the addition of 5 μl of a 0.5 M (3%) orthophosphoric acid soln. and then transferred onto P81 Unifilter plates and washed with 50 mM orthophosphoric acid buffer.

MAPK8 [1] = target: T2, MAPK8 (Homo sapiens, UniProt P45983); assay: filter binding kinase assay; format: biochemical; design: purchased; conditions: derived from % inhibition at 1 μM; first MAPK8 line
Procedure: as §1
Target sequence in this assay (P45983 whole entry, species assumed): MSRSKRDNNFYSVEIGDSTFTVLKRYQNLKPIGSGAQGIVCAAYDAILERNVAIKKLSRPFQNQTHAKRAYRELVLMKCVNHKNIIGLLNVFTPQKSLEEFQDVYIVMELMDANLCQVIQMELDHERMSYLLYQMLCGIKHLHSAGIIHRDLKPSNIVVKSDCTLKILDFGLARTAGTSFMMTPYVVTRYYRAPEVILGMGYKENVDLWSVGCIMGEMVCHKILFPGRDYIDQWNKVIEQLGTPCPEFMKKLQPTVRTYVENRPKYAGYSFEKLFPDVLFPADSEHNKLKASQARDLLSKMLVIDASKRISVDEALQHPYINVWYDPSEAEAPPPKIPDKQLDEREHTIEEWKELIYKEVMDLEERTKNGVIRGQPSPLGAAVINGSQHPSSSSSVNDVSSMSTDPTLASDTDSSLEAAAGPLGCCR

MAPK8 [2] = target: T2, MAPK8; assay: filter binding kinase assay (second MAPK8 line); format: biochemical; conditions: read-out: residual kinase activity MAPK8
Procedure: as §1
Target sequence in this assay (P45983 whole entry): as the sequence (P45983 whole entry, species assumed) above

SMILES	IC50 (NUAK1)	remaining activity at 1 µM (NUAK1)	melting point	IC50 (MAPK8 [1])	remaining activity at 1 µM (MAPK8 [2])
c1ccc(Cc2c[nH]c3ncsc23)cc1 [Compound A7, 6-benzyl-4H-pyrrolo[2,3-d]thiazole]	10 to 1000 nM	27%	133 to 135 °C	1000 to 10000 nM	
Nc1ncsc1C#Cc1cnc2[nH]ccc2c1 [Compound A22, 5-(1H-pyrrolo[2,3-b]pyridin-5-ylethynyl)thiazol-4-ylamine]	10 to 1000 nM	16%			34%
Nc1ncsc1C#Cc1cccc(O)c1 [Compound A27, 3-(4-aminothiazol-5-ylethynyl)phenol]	10 to 1000 nM	49%		1000 to 10000 nM	
CC(C)(C)OC(=O)Nc1ncsc1C#CCN1C(=O)c2ccccc2C1=O [Compound A26, tert-butyl{5-[3-(1,3-dioxo-1,3-dihydroisoindol-2-yl)prop-1-ynyl]-thiazol-4-yl}carbamate]	10 to 1000 nM	24%		10000 to 100000 nM	
CC(C)(C)OC(=O)Nc1nc(-c2ccncc2)sc1C#CCN1CCOCC1 [Compound A25, tert-butyl[5-(3-morpholin-4-ylprop-1-ynyl)-2-pyridin-4-ylthiazol-4-yl]-carbamate]	10000 to 100000 nM			> 1000 nM	
